Data published in US12358931B2, “3-((1R,3s,5S)-3-((7-((5-methyl-1H-pyrazol-3-yl)amino)-1,6-naphthyridin-5-yl)amino)-8-azabicyclo[3.2.1]octan-8-yl) propanenitrile as a JAK kinase inhibitor” (priority 2015, dated 2025).

Legend:
[1] = Description: A weighed sample was used and the humidity was lowest possible value (close to 0% RH) at the start of the analysis. The DMS analysis consisted of an initial drying step (0% RH) for 120 minutes, followed by two cycles of sorption and desorption with a scan rate of 5% RH/step over the humidity range of 5% RH to 90% RH. The DMS run was performed isothermally at 25° C.
[2] = Solid state stability assessment; type: physicochemical; design: unit not given here
Text: At specific intervals, the contents of a representative sample was removed and analyzed by HPLC for chemical purity and by Karl Fischer for water content.

[3] = tested on: mouse splenic NK, B and T cells; assay: Immunosuppression effects in mouse splenic natural killer (NK) cells; type: in vivo, Balb/C mice; details: for B and T cell populations: mouse spleen; for B and T cell populations / splenic NK cell counts: PO BID three days; for splenic NK cell counts: Example 1 up to 100 mg/kg, tofacitinib 30 mg/kg
Description: Depletion of mouse splenic cells is an experimental model of immunosuppression (Kudlacz et al., Am. J. of Transplantation, 2004, 4, 51-57). […] Adult male Balb/C mice (12-14 weeks of age) from Harlan were used for the study. […] Spleens were harvested 1 or 2 h post last dose and crushed immediately for cell subtype staining. Prior to fixation, fluorophore-labelled antibodies for CD19 (FITC; B cells), CD3e (PE; pan T cells) and DX5 (APC; NK cells) were incubated with splenocyte samples from each animal to allow for simultaneous, multiple subtype % analysis on the flow cytometer. The number of total spleen cells for each animal was measured by Scepter™ 2.0 Handheld Automated Cell Counter. The absolute number of lymphocyte subtype population (e.g., splenic B, T and NK cells) was calculated from the percentage of each subtype times total spleen cells for each animal. A one way ANOVA, with Dunnett's post hoc test, was used to compare the splenic lymphocytes number of the vehicle and test compound groups. The a level was set at p<0.05. Data were presented as the mean±SEM for each group.

[4] = Pharmacokinetics in plasma and the GI tract in rats; type: in vivo, Sprague Dawley rats; details: oral dosing in preclinical species
Description: A test compound was dosed to male Sprague Dawley rats (n=3) as described in Assay 5. […] At all time points, the plasma concentration was below the limit of quantitation of 0.001 μg/mL.

[5] = tested on: oxazolone-induced colitis; assay: Mouse model of oxazolone-induced colitis; type: in vivo, BALB/C mice; details: PO, 1, 3, and/or 10 mg/kg BID
Description: Oxazolone-induced colitis is an experimental model that has a histological resemblance to human ulcerative colitis (Heller et al. […], 2002, 17, 629-638). Adult BALB/C mice from Harlan were used in the assay. On day 1, animals were lightly anesthetized with isoflurane and the hairs between the shoulder were carefully removed before oxazolone (4%, 150 μL, 4:1 acetone: olive oil formulation) or vehicle solution was slowly applied for skin sensitization. Seven days after skin sensitization, the mice were fasted overnight, anesthetized with isoflurane inhalation, and a 1 mL syringe equipped with a 3.5-F catheter, filled with oxazolone solution, was inserted carefully about 4 cm into the colon of the mouse. Following insertion, 50 μL of the oxazolone solution (1%, 1:1 ethanol:water formulation) was injected very slowly (over 30 sec using an injection pump) into the colon. […] Two-day post oxazolone intrarectal challenge, the Disease Activity Index (DAI) was assessed by treatment-blinded experimenters for each mouse according to the criteria score: stool consistency score (0, normal; 2, loose; 4, diarrhea), gross bleeding score (0, absence; 2, blood tinged; 4, presence), and weight loss score (0, none; 1, 1%-5%; 2, 5%-10%; 3, 10%-20%; 4, more than 20%); DAI=average of (stool consistency score+gross bleeding score+weight loss score). […]

[6] = First in human study of safety, tolerability and pharmacokinetics in healthy subjects; type: in vivo; details: suggested by comparison with other orally administered compounds
Description: The compound of Example 1 was evaluated in a double-blinded, randomized, placebo-controlled, single ascending dose (SAD) and multiple ascending dose (MAD) study of safety, tolerability, and pharmacokinetics in healthy subjects. Pharmacokinetic samples were collected up to 72 hours post the final dose in both the SAD study (after the first dose) and MAD study (after 14 days of once-daily dosing). The SAD study enrolled 5 cohorts and the MAD study enrolled 4 cohorts totaling 72 subjects, of which 71 completed the dosing period.
Plasma pharmacokinetic (PK) parameters were determined by non-compartmental analysis using WinNonLin Version 6.4.0 (Pharsight, St Louis, MO). The plasma PK parameter presented here is: • Cmax: maximum concentration in plasma

| SMILES | weight change (gain) on moisture sorption ([1]; 5% to 90% relative humidity, room temperature, listed as Crystalline 3-(1R,3s,5S)-3-((7-((5-methyl-1H-pyrazol-3-yl)amino)-1,6-naphthyrid))) | hygroscopicity ([1]; two cycles of sorption and desorption) | RRT 0.96 ([2]; HPLC peak at RRT 0.96, T = 0) | RRT 0.96 ([2]; HPLC peak at RRT 0.96, T = 1 Month, 40° C./75% RH) | RRT 0.96 ([2]; HPLC peak at RRT 0.96, T = 3 Month, 25° C./60% RH) | RRT 0.96 ([2]; HPLC peak at RRT 0.96, T = 3 Month, 40° C./75% RH) | RRT 1.84 ([2]; HPLC peak at RRT 1.84, T = 0) | RRT 1.84 ([2]; HPLC peak at RRT 1.84, T = 1 Month, 40° C./75% RH) | RRT 1.84 ([2]; HPLC peak at RRT 1.84, T = 3 Month, 25° C./60% RH) | RRT 1.84 ([2]; HPLC peak at RRT 1.84, T = 3 Month, 40° C./75% RH) | B and T cell populations [3] | splenic NK cell counts ([3]; mouse) | exposure throughout the gastrointestinal tract versus plasma [4] | decrease in DAI score as compared with vehicle treated animals [5] | effect of immunosuppression ([3]; mouse, same dose required for efficacy in the oxazolone model) | oral bioavailability [6] |
| --- | --- | --- | --- | --- | --- | --- | --- | --- | --- | --- | --- | --- | --- | --- | --- | --- |
| Cc1cc(Nc2cc3ncccc3c(N[C@@H]3C[C@H]4CC[C@@H](C3)N4CCC#N)n2)n[nH]1 [Form I, 3-((1R,3s,5S)-3-((7-((5-methyl-1H-pyrazol-3-yl)amino)-1,6-naphthyridin-5-yl)amino)-8-azabicyclo[3.2.1]octan-8-yl)propanenitrile] | less than 0.15% | non-hygroscopic | 0.07 | 0.07 | 0.07 | 0.07 | 0.08 | 0.08 | 0.05 | 0.05 |  |  |  |  |  |  |
| C[C@@H]1CCN(C(=O)CC#N)C[C@@H]1N(C)c1ncnc2[nH]ccc12 [tofacitinib, reference compound] |  |  |  |  |  |  |  |  |  |  | No treatment effect | dose-dependently and significantly decreased |  |  |  |  |
| Cc1cc(Nc2cc3ncccc3c(N[C@@H]3C[C@H]4CC[C@@H](C3)N4CCC#N)n2)n[nH]1 [Example 1, 3-((1R,3s,5S)-3-((7-((5-methyl-1H-pyrazol-3-yl)amino)-1,6-naphthyridin-5-yl)amino)-8-azabicyclo[3.2.1]octan-8-yl)propanenitrile] |  |  |  |  |  |  |  |  |  |  | No treatment effect | unaffected | significantly higher exposure | demonstrated activity | minimal effect | very low |
